Data as given in patent US10829796B2, “Bacteria identification and antimicrobial susceptibility test” (priority 2015, dated 2020).

System: Streptococcus uberis
Assay: Group D Streptococci identification, esculin/ferric citrate in TSB (blackening = growth), bacteria in milk
Format: cell-based
Settings: TSB containing 0.5% esculin and 0.25% ferric citrate + 80 uL spiked milk; 100 ug/ml aztreonam and/or 0.5 mg/mL phenol red
Procedure: By way of illustration, the same experiment was conducted as above, only this time using clinical milk samples obtained from a bovine animal suspect of being infected with mastitis.
However, Applicant has discovered that increased amounts of esculin and ferric citrate may be used in milk derived clinical samples. For example, at concentrations of at least 2% esculin and 1% ferric citrate, the growth of Streptococcus uberis is not inhibited.
Note, in the experiments above, the clinical sample tested was milk obtained from a bovine animal suspected of being infected by mastitis. If a non-milk clinical sample were to be tested, then inclusion of a stabilizing agent (e.g. milk in the form of a liquid or powder) would be required in order to suppress the growth inhibitory effect of esculin and ferric citrate at the higher concentrations used according to this invention.
Applicant further discovered that TSB containing 0.5% esculin and 0.25% ferric citrate and 80 uL of spiked Streptococcus uberis milk sample which also contained 100 ug/ml aztreonam concentration (antibiotic which has activity against many gram-bacteria such as E. coli) and/or in combination with 0.5 mg/mL phenol red led to easy detectable colour changes. No inhibition of Streptococcus uberis due to phenol red or aztreonam was detected.

C[C@H]1[C@H](NC(=O)/C(=N\OC(C)(C)C(=O)O)c2csc(N)n2)C(=O)N1S(=O)(=O)O [aztreonam]
Inhibition of Streptococcus uberis: No inhibition
